Assay results taken from US7538193B2, “NO-modified hemoglobins and uses therefor” (Duke University, priority 1995, dated 2009).

What was measured:
Sprague-Dawley rat = assay: Mean arterial blood pressure in anesthetized rats after femoral vein bolus (Examples 5, 6); type: in vivo; conditions: for blood pressure response: bolus into femoral vein, 2-200 nmol/kg
From the text: Rats were anesthetized by intraperitoneal injection of pentobarbital and the femoral arteries and veins accessed by local cut down. The artery was then cannulated and the blood pressure monitored continuously using a Viggo Spectramed pressure transducer attached to a Gould recorder. An IBM PC (DATA Q Codas) was used for data acquisition.

[1] = Endogenous SNO-Hb and Hb(FeII)NO in rat blood by photolysis-chemiluminescence; type: in vivo; conditions: 45 minutes after infusion of 50 mg/kg
From the text: A highly sensitive photolysis-chemiluminescence methodology was employed, which had been used for measuring RSNOs (S-nitrosothiols) in biological systems (Gaston, B., et al., Proc. Natl. Acad. Sci. USA 90:10957-10961 (1993); Stamler, J. S., et al., Proc. Natl. Acad. Sci USA 89:7674-7677 (1992)). The method involves photolytic liberation of NO from the thiol, which is then detected in a chemiluminesence spectrometer by reaction with ozone. […]
Blood was obtained from the left ventricle (arterial) and jugular vein (venous) of anesthetized Sprague-Dawley rats. […] In 24 rats, Hb samples were divided in two aliquots which were then treated or not treated with 10-fold excess HgCl2 over protein concentration as measured by the method of Bradford. […] Under these conditions, any nitrite present was converted to S-nitrosoglutathione, which was then measured by photolysis-chemiluminescence (detection limit ˜1 nM). SNO-Hb was present in all arterial samples, and levels determined by this method (286±33 nM) were virtually identical to and not statistically different from those shown in Table 2. […]
A highly sensitive photolysis-chemiluminescence methodology was employed. […] The method involves photolytic liberation of NO from the thiol, which is then detected in a chemiluminesence spectrometer by reaction with ozone. […]

rabbit aortic ring = assay: Vessel ring bioassay of SNO-Hb preparations (Examples 4, 13); type: cell-based; conditions: for effect of added glutathione on the dose-response: glutathione 100 ∥M in bioassay chambers (FIG. 4B); for vasoactivity in vascular ring bioassay: no added thiol (FIG. 4A)
Protocol: Details of the vessel ring bioassay have been published (Stamler, J. S., et al., Proc. Natl. Acad. Sci. USA 89:444-448 (1992)). SNO-Hb(FeII)O2 preparations were synthesized with 10-fold excess S-nitrosocysteine (CYSNO) over Hb(FeII)O2 protein (2% borate, 0.5 mM EDTA, ˜15 min incubation), after which desalting was performed across Sephadex G-25 columns. CYSNO was synthesized in 0.5 N HCl, 0.5 mM EDTA and then neutralized (1:1) in 1 M phosphate buffer containing 0.5 mM EDTA. […] The latter was synthesized by treatment of Hb(FeII)O2 with excess ferricyanide, followed by desalting across G-25 columns. SNO-Hb concentrations were verified spectroscopically and the S-nitrosothiol content was determined by the method of Saville (Stamler, J. S., et al., Proc. Natl. Acad. Sci USA 89:444-448 (1992)). The S—NO/tetramer stoichiometry for both SNO-Hb preparations was ˜2. Oxidation of the heme was undetectable by uv-spectrophotometric methods.
The aortic ring bioassay was performed as described in Example 4. The product of the reaction in which a ratio of 100:1 CYSNO/Hb tetramer was used, contains 2 SNOs as well as NO attached to the heme.

platelets = assay: ADP-induced aggregation of platelet-rich plasma; type: cell-based, human; conditions: 5 μM ADP
Protocol: Venous blood, anticoagulated with […] sodium citrate, was obtained from volunteers who had not consumed acetylsalicylic acid or any other platelet-active agent for at least 10 days. Platelet-rich plasma was prepared by centrifugation at 150×g for 10 minutes at 25° C. and was used within 2 hours of collection. Platelet counts were determined with a Coulter counter (model ZM) to be 1.5 to 3×10^8/ml.
Aliquots (0.3 ml) of platelets were incubated at 37° C. and stirred at 1000 rpm in a PAP-4 aggregometer (Biodata, Hatsboro, Pa.). Hemoglobins were preincubated with platelets for 10 min and aggregations were induced with 5 μM ADP. Aggregations were quantified by measuring the maximal rate and extent of change of light transmittance and are expressed as a normalized value relative to control aggregations performed in the absence of hemoglobin.

[2] = test system: rat brain (caudatoputamen nucleus); assay: Brain blood flow in rats by H2 clearance (Example 12); type: in vivo; conditions: Example 12, FIG. 10
Protocol: SNO-Hb(FeII)O2, having a SNO/Hb ratio of 2, was prepared (from HbA0) by reaction with S-nitrosothiol. Rats breathing 21% O2 were injected (time 0) with Hbs prepared from HbA0 as indicated in FIG. 10 (open circles, SNO-Hb (100 nmol/kg); filled circles, SNO-Hb (1000 nmol/kg); filled squares, unmodified Hb (1000 nmol/kg)). Three rats were used per experiment. Blood flow was measured in brain using the H2 clearance method; microelectrodes were placed in the brain stereotactically. […] NO group release is promoted by local tissue hypoxia.

[3] = Decomposition and stability of SNO-Hb forms; type: physicochemical; conditions: as synthesized in Example 27
Protocol: Hbs in PBS (0.5 mM EDTA, pH 7.4) were incubated in air (oxy) or in a tonometer previously evacuated of O2 (deoxy). SNO-Hb(FeII)O2 decomposition was determined by the method of Saville (Saville, B., Analyst 83:670-672 (1958)). Spontaneous decomposition of SNO-Hb(FeII) was followed spectrophotometrically by formation of Hb(FeII)NO. Transnitrosation reactions with glutathione were performed by addition of 100-fold excess glutathione over protein (50 μM), immediate processing of the reaction mixture under anaerobic conditions followed by rapid TCA precipitation, and analysis of RSNO in the supernatant. Rates of NO group transfer were too rapid to measure accurately by the standard methods used in this study.

[4] = Transnitrosation between SNO-Hb and glutathione; type: biochemical; conditions: SNO-Hb 100 μM, glutathione 10 mM
From the text: Data are presented as the amount of GSNO formed relative to the starting SNO-Hb concentration.
Thiol/SNO-Hb exchange, forming GSNO, was verified chemically (Stamler, J. S., et al., Proc. Natl. Acad. Sci. USA, 89:444-448 (1992)) following trichloroacetic acid precipitation (n=5).

cGMP in platelets = assay: cGMP radioimmunoassay in platelet rich plasma; type: cell-based; conditions: 1, 10 and 100 μM; 5 min incubation
Protocol: Platelet rich plasma (PRP) was incubated with either hemoglobin, SNO-oxy Hb, or SNO-metHb for 5 min, after which the assay was terminated by the addition of 0.5 ml of ice cold trichloroacetic acid to 10%. Ether extractions of the supernatant were performed to remove trichloroacetic acid, and acetylation of samples with acetic anhydride was used to increase the sensitivity of the assay. Measurements of cyclic GMP were performed by radioimmunoassay (Stamler, J. et al., Circ. Res. 65:789-795 (1989)).

Compound	increase in blood pressure (Sprague-Dawley rat; 50 mg/kg)	depletion of SNO-Hb [1] [%]	depletion of total Hb-NO [1] [%]	blood pressure response (Sprague-Dawley rat)	effect of added glutathione on the dose-response (rabbit aortic ring)	vasoactivity in vascular ring bioassay (rabbit aortic ring)	inhibition of platelet aggregation (platelets; 10 nM to 100 μM preincubated 10 min)	duration of effects on blood flow in rat brain [2]	stability of the isolated preparation [3]	rate of NO group transfer to glutathione [4]	time for blood pressure to normalize after hypotensive response (Sprague-Dawley rat) [min]	mean arterial pressure, post (Sprague-Dawley rat; after 200 nmol/kg (highest dose)) [mm Hg]	mean arterial pressure, pre (Sprague-Dawley rat; before 200 nmol/kg infusion) [mm Hg]	concentrations at which platelet aggregation is inhibited (platelets; preincubated 10 min) [µM]	concentration of cGMP measured (cGMP in platelets)
CNC(=N)NCCC[C@H](N)C(=O)O [L-NMMA, N^ω-monomethyl-L-arginine]	about 20 mm Hg	82	50±18												
SNO-Hb(FeII)O2: S-nitroso-oxyhemoglobin made from oxyHb with excess S-nitrosocysteine				did not exhibit hypertensive effects	potentiates the dose-response	modest NO-like activity	some inhibition of platelet aggregation at the higher concentrations tested	over 20 minutes	quite stable						
SNO-Hb(FeIII): S-nitroso-methemoglobin, S-nitrosylated methemoglobin				hypotensive responses	potentiates the dose-response	vasodilator			inherently unstable	more rapid	10	74±6	108±4	≥ 1	less than that of native Hb
